Results from US6229016A, “Method for treating tumors using 2-aryl-naphthyridin-4-ones” (priority 2000, dated 2001).
Read-outs that look alike come from different tables or passages of the source.

Columns and labels:
tubulin [1] = test: Colchicine binding assay; set-up: species or system bovine; conditions: for ICB (% Inhibition) (inhibition of colchicine binding): evaluated only when polymerization IC50 ≤ 1 μM, 5.0 μM inhibitor, 5.0 μM [3H]colchicine, 1.0 μM tubulin
Procedure: Electrophoretically homogeneous bovine brain tubulin was purified as described in E. Hamel, et al. Biochemistry 23:4173 (1984). Combretastatin A-4 was a generous gift of Dr. G. R Pettit, Arizona State University.
Incubation was for 20 min at 37° C. Each reaction mixture was filtered under reduced vacuum through a stack of two DEAE-cellulose paper filters, washed with water, and radioactivity quantitated in a liquid scintillation counter.
[…]. with 36' vs. 33'-35', and with 46' vs. 43'-45').

[2] = test system: SF-295 CNS cancer cell line; test: NCI in vitro screen, CNS cancer SF-295; type: cell-based; conditions: Homo sapiens, read-out: Cytotoxicity log GI50 (converted)
[3] = test system: NCI-H460 non-small cell lung cancer cell line; test: NCI in vitro screen, non-small cell lung cancer NCI-H460; type: cell-based; conditions: Homo sapiens, read-out: Cytotoxicity log GI50 (converted)
[4] = test system: HCT-116 colon cancer cell line; test: NCI in vitro screen, colon cancer HCT-116; type: cell-based; conditions: Homo sapiens; HCT-1.16 (head); HCT-116 (footnote); read-out: Cytotoxicity log GI50 (converted)
[5] = test system: 786-0 renal cancer cell line; test: NCI in vitro screen, renal cancer 786-0; type: cell-based; conditions: Homo sapiens, read-out: Cytotoxicity log GI50 (converted)
[6] = test system: MDA-N breast cancer cell line; test: NCI in vitro screen, breast cancer MDA-N; type: cell-based; conditions: Homo sapiens; for IC (TGI): range over four compounds and two cell lines, read-out: log TGI; for GI50: read-out: Cytotoxicity log GI50 (converted)
[7] = test system: MDA-MB-435 breast cancer cell line; test: NCI in vitro screen, breast cancer MDA-MB-435; type: cell-based; conditions: Homo sapiens; for IC (TGI): range over four compounds and two cell lines, read-out: log TGI; for GI50: read-out: Cytotoxicity log GI50 (converted)
NCI-H226 cell line = test: NCI in vitro screen, NCI-H226; type: cell-based; conditions: Homo sapiens, range over four compounds, read-out: log TGI
Excerpt: Compounds 41-51 and 53-68 were submitted to NCI and assayed in the NCI's in vitro disease-oriented antitumor screen, which involves determination of a test compound's effects on the growth of approximately 60 human tumor cell lines. See, M. R. Boyd, et al. In Cancer: Principles and Practice of Oncology Updates; De Vita, V. T., Hellman, S., Rosenberg, S. A., Eds; J. B. Lippincoft: Philadelphia, pp 1-12 (1989); and A. Monks, et al. J. Natl. Cancer Inst. 83:757 (1991). These lines include leukemia, non-small cell lung, colon, central nervous system (CNS), melanoma, ovarian, renal, prostate, and breast cancers.

[8] = test system: U-251 CNS cancer cell line; test: NCI in vitro screen, CNS cancer U-251; type: cell-based; conditions: Homo sapiens, read-out: Cytotoxicity log GI50 (converted)
[9] = test system: NCI's 60 human tumor cell line; test: NCI 60 human tumor cell line in vitro screen (average / whole panel); type: cell-based; conditions: calculated from all cell lines tested, molar concentrations, read-out: average log GI50 (converted)
[10] = test system: OVCAR-3 ovarian cancer cell line; test: NCI in vitro screen, ovarian cancer OVCAR-3; type: cell-based; conditions: Homo sapiens, read-out: Cytotoxicity log GI50 (converted)
[11] = test system: SK-MEL-5 melanoma cell line; test: NCI in vitro screen, melanoma SK-MEL-5; type: cell-based; conditions: Homo sapiens, read-out: Cytotoxicity log GI50 (converted)
[12] = test system: PC-3 prostate cancer cell line; test: NCI in vitro screen, prostate cancer PC-3; type: cell-based; conditions: Homo sapiens, read-out: Cytotoxicity log GI50 (converted)
[13] = test system: HL-60(TB) leukemia cell line; test: cells; type: cell-based; conditions: Homo sapiens; for IC (TGI): HL-60, H-60 cell line, range over four compounds, read-out: log TGI; for GI50: HL-60(TB), read-out: Cytotoxicity log GI50 (converted)
tubulin [14] = test: Tubulin polymerization assay; type: biochemical, bovine
Procedure: Electrophoretically homogeneous bovine brain tubulin was purified as described in E. Hamel, et al. Biochemistry 23:4173 (1984).
The tubulin polymerization assay was performed as described in S. Kuo, et al. J. Med. Chem. 36:1146 (1993); L. Li, et al. J. Med. Chem. 37:1126 (1994); and L. Li J. Med. Chem. 37:3400 (1994). In brief, tubulin at 1.2 mg/ml (12 μM) was preincubated for 15 min at 26° C. in a 0.24-ml volume of 0.8 M monosodium glutamate (pH 6.6 with NaOH in a 2 M stock solution) with varying drug concentrations. The drug stock solutions were in DMSO, and the final solvent concentration was 4 % (v/v). All concentrations are in terms of the final reaction volume (0.25 ml). The reaction mixtures were chilled on ice, and 10 μl of 10 mM GTP was added to each reaction mixture. Samples were transferred to cuvettes held at 0° C. by an electronic temperature controller in Gilford spectrophotometers. Baselines were established at 350 nm, and polymerization initiated by a temperature jump to 26° C. The jump took about 50 sec to complete. After 20 min, turbidity readings were recorded, and the temperature controller was set to 0C. When depolymerization was complete, turbidity readings were again recorded. […] IC50 values were obtained graphically from inhibition of polymerization by different drug concentrations.
Electrophoretically, homogeneous bovine brain tubulin was purified as described in Example 6.
The tubulin polymerization assay was performed as described in Example 6.

[15] = test system: central nervous system, lung, ovarian, colon, and renal cancers and melanoma and leukemia cell lines; test: Cytotoxicity of isolated flavonol in panels of tumor cell lines; type: cell-based; conditions: in vitro
Excerpt: In the course of this groups search for novel plant-derived potent cytotoxic agents that are active against slow-growing solid tumors, we have isolated several flavonols as antitumor principles from a phytochemically and biologically heretofore uninvestigated plant, Polanisia dodecandra. […]

[16] = Tables 1 and 4, read-out: ITP HC50 ± SD (Inhibition of Tubulin Polymerization)
[17] = read-out: IC50, inhibition of tubulin polymerization

COc1cc([C@@H]2c3cc4c(cc3[C@H](O)[C@H]3COC(=O)[C@H]23)OCO4)cc(OC)c1OC [podophyllotoxin, reference compound]
ICB (% Inhibition) (inhibition of colchicine binding) (tubulin [1]): 76 ± 5%

COc1ccc(/C=C\c2cc(OC)c(OC)c(OC)c2)cc1O [combretastatin A-4, Combretastatin A-4]
ICB (% Inhibition) (inhibition of colchicine binding) (tubulin [1]): 91 ± 2%

COc1cccc(-c2cc(=O)c3cc(C)cnc3[nH]2)c1 [Compound 46]
GI50 [2]: 37.2 nM
GI50 [3]: 43.7 nM
GI50 [4]: 22.4 nM
GI50 [5]: 37.2 nM
IC (TGI) [6]: 21.4 to 39.8 nM
GI50 [6]: < 10 nM
IC (TGI) [7]: 21.4 to 39.8 nM
GI50 [7]: < 10 nM
IC (TGI) (NCI-H226 cell line): 75.9 to 692 nM
GI50 [8]: 44.7 nM
GI50 [9]: 95.5 nM
GI50 [10]: 41.7 nM
GI50 [11]: 25.7 nM
GI50 [12]: 42.7 nM
IC (TGI) [13]: 39.8 to 64.6 nM
GI50 [13]: 19.1 nM

COc1cccc(-c2cc(=O)c3cccnc3[nH]2)c1 [Compound 44]
GI50 [2]: 52.5 nM
GI50 [3]: 91.2 nM
GI50 [4]: 36.3 nM
GI50 [5]: 61.7 nM
IC (TGI) [6]: 21.4 to 39.8 nM
GI50 [6]: < 10 nM
IC (TGI) [7]: 21.4 to 39.8 nM
GI50 [7]: < 10 nM
IC (TGI) (NCI-H226 cell line): 75.9 to 692 nM
GI50 [8]: 55 nM
GI50 [9]: 135 nM
GI50 [10]: 55 nM
GI50 [11]: 53.7 nM
GI50 [12]: 93.3 nM
IC (TGI) [13]: 39.8 to 64.6 nM
GI50 [13]: 16.2 nM

COc1cccc(-c2cc(=O)c3ccc(C)nc3[nH]2)c1 [Compound 47]
GI50 [2]: 30.2 nM
GI50 [3]: 43.7 nM
GI50 [4]: 46.8 nM
GI50 [5]: 53.7 nM
IC (TGI) [6]: 21.4 to 39.8 nM
GI50 [6]: 11 nM
IC (TGI) [7]: 21.4 to 39.8 nM
GI50 [7]: < 10 nM
IC (TGI) (NCI-H226 cell line): 75.9 to 692 nM
GI50 [8]: 53.7 nM
GI50 [9]: 57.5 nM
GI50 [10]: 22.4 nM
GI50 [11]: 33.9 nM
GI50 [12]: 33.1 nM
IC (TGI) [13]: 39.8 to 64.6 nM
GI50 [13]: 18.2 nM

O=C1CC(c2ccc(F)cc2)=Nc2ncc(Cl)cc21 [Compound 61, 2-(4'-Fluorophenyl)-6-chloro-1,8-naphthyridin-4-one]
GI50 [2]: 21400 nM
GI50 [3]: 30200 nM
GI50 [4]: 17000 nM
GI50 [5]: 32400 nM
GI50 [6]: 2950 nM
GI50 [7]: 2570 nM
IC50 (tubulin [14]; [16]): 16000 ± 3000 nM
IC50 (tubulin [14]; [17]): 11000 to 32000 nM
GI50 [8]: 29500 nM
GI50 [9]: 21900 nM
GI50 [10]: 17400 nM
GI50 [11]: 6610 nM
GI50 [12]: 21900 nM
GI50 [13]: 3890 nM

Cc1ccc2c(n1)N=C(c1ccc(Cl)cc1)CC2=O [Compound 65, 2-(4'-Chlorophenyl)-7-methyl-1,8-naphthyridin-4-one]
GI50 [2]: 4570 nM
GI50 [3]: 4470 nM
GI50 [4]: 3310 nM
GI50 [5]: 6310 nM
GI50 [6]: 1000 nM
GI50 [7]: 912 nM
IC50 (tubulin [14]; [16]): 11000 ± 700 nM
IC50 (tubulin [14]; [17]): 11000 to 32000 nM
GI50 [8]: 4790 nM
GI50 [9]: 4900 nM
GI50 [10]: 2570 nM
GI50 [11]: 4370 nM
GI50 [12]: 1660 nM
GI50 [13]: 2950 nM

Cc1cnc2c(c1)C(=O)CC(c1ccc(Cl)cc1)=N2 [Compound 64, 2-(4'-Chlorophenyl)-6-methyl-1,8-naphthyridin-4-one]
GI50 [2]: 2400 nM
GI50 [3]: 3890 nM
GI50 [4]: 2820 nM
GI50 [5]: 6310 nM
GI50 [6]: 562 nM
GI50 [7]: 603 nM
IC50 (tubulin [14]; [16]): 2000 ± 10 nM
IC50 (tubulin [14]; [17]): 1500 to 9800 nM
GI50 [8]: 3020 nM
GI50 [9]: 3720 nM
GI50 [10]: 2240 nM
GI50 [11]: 2190 nM
GI50 [12]: 1150 nM
GI50 [13]: 2240 nM

COc1cccc(-c2cc(=O)c3cc(Cl)cnc3[nH]2)c1 [Compound 49]
GI50 [2]: 60.3 nM
GI50 [3]: 63.1 nM
GI50 [4]: 120 nM
GI50 [5]: 427 nM
IC (TGI) [6]: 21.4 to 39.8 nM
GI50 [6]: 31.6 nM
IC (TGI) [7]: 21.4 to 39.8 nM
GI50 [7]: 32.4 nM
IC (TGI) (NCI-H226 cell line): 75.9 to 692 nM
GI50 [8]: 200 nM
GI50 [9]: 97.7 nM
GI50 [10]: 490 nM
GI50 [11]: 126 nM
GI50 [12]: 138 nM
IC (TGI) [13]: 39.8 to 64.6 nM
GI50 [13]: 26.9 nM

COc1ccc(-c2oc3c(OC)c(OC)c(OC)c(O)c3c(=O)c2OC)cc1O [5,3'-dihydroxy-3,6,7,8,4'-pentamethoxyflavone]
IC50 (tubulin [14]; earlier finding, background section, read-out: IC50, inhibitor of tubulin polymerization): 830 ± 200 nM
GI50 values [15]: low micromolar to nanomolar concentration range
inhibition of radiolabeled colchicine binding to tubulin (tubulin [1]; equimolar concentration with colchicine, background section): 59%
